Data taken from patent EP2326328B1, “USE OF DIHYDRALAZINE FOR THE TREATMENT OF DISEASES RELATED TO ELEVATED SEMICARBAZIDE SENSITIVE AMINE-OXIDASE (SSAO) ACTIVITY” (Semmelweis Egyetem, priority 2008, dated 2010).
“And” between values parts separate entries of the source, which are not always exact repeats. Equal values may be shown once. Read-outs that look alike come from different tables or passages of the source.

Biological target: T1, SSAO (Rattus norvegicus, UniProt O08590)
T1 construct: from tissue; host or cells: rat serum (blood supernatant) of treated animals
T1 sequence (O08590 28-763 limits assumed): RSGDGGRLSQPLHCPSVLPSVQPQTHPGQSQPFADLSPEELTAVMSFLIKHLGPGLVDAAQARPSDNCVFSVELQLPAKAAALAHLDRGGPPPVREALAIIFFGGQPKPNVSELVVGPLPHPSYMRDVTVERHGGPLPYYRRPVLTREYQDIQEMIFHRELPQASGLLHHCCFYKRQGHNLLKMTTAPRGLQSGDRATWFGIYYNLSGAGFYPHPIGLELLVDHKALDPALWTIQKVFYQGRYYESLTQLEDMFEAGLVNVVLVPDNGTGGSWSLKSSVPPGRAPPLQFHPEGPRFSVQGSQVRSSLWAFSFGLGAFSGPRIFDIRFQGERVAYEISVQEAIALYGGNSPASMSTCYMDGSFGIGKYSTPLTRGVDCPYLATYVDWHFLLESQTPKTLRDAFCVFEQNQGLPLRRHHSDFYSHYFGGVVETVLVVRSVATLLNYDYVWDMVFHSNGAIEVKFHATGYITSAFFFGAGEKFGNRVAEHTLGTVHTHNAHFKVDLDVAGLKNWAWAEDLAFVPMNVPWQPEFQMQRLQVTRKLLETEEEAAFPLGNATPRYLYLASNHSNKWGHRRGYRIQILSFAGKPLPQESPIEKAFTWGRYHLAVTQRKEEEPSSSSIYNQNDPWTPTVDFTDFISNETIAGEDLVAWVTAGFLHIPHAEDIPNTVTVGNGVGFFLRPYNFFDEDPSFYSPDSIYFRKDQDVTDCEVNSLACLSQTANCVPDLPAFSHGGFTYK
Assay: serum SSAO activity in vivo in rats after sc treatment
Details: for Specific activity (pmol/mg/h) Mean / Inhibition (%) / Specific activity / inhibition at 10 µmol/kg / inhibition at 100 µmol/kg: rat serum SSAO; for Specific activity (pmol/mg/h) Mean / Specific activity: control mean 3.373; for inhibition at 10 µmol/kg / inhibition at 100 µmol/kg: rat, sc
Protocol: Rats were treated sc with 0.1 or 0.01 M dihydralazine solution (0.1 ml/100 g) once daily for 1-5 days. On the appropriate day, 2 hours after the treatment the rats were decapitated and their blood was collected without anticoagulant in plastic centrifuge tubes. Blood samples were centrifuged at a low frequency (800 rpm/min) and the supernatant was used for the determination of SSAO activity applying ^14C-benzylamine substrate.
SSAO inhibition expressed in pmol/mg protein/hour units and in % values (mean ± S.D.) in the two treated groups is shown in table 2 and 3.

[1] = sc 10 µmol/kg (1.9 mg/kg) once daily, 24 h, individual animals
[2] = sc 10 µmol/kg (1.9 mg/kg) once daily, 48 h, individual animals
[3] = sc 10 µmol/kg (1.9 mg/kg) once daily, 72 h, individual animals
[4] = sc 10 µmol/kg (1.9 mg/kg) once daily, 96 h, individual animals
[5] = sc 10 µmol/kg (1.9 mg/kg) once daily, 120 h, individual animals
[6] = sc 100 µmol/kg (19 mg/kg) once daily, 24 h, individual animals
[7] = sc 100 µmol/kg (19 mg/kg) once daily, 48 h, individual animals
[8] = sc 100 µmol/kg (19 mg/kg) once daily, 72 h, individual animals
[9] = sc 100 µmol/kg (19 mg/kg) once daily, 96 h, individual animals
[10] = sc 100 µmol/kg (19 mg/kg) once daily, 120 h, individual animals

Specific activity (pmol/mg/h) Mean (sc 10 µmol/kg (1.9 mg/kg) once daily, 24 h, group mean): 1.580 pmol/mg/h
Inhibition (%) [1]: 37% and 57%
Specific activity (pmol/mg/h) Mean (sc 10 µmol/kg (1.9 mg/kg) once daily, 48 h, group mean): 1.595 pmol/mg/h
Inhibition (%) [2]: 52% and 55%
Specific activity (pmol/mg/h) Mean (sc 10 µmol/kg (1.9 mg/kg) once daily, 72 h, group mean): 1.244 pmol/mg/h
Inhibition (%) [3]: 69%
Specific activity (pmol/mg/h) Mean (sc 10 µmol/kg (1.9 mg/kg) once daily, 96 h, group mean): 1.344 pmol/mg/h
Inhibition (%) [4]: 71% and 42%
Specific activity (pmol/mg/h) Mean (sc 10 µmol/kg (1.9 mg/kg) once daily, 120 h, group mean): 1.425 pmol/mg/h
Inhibition (%) [5]: 77% and 14% and 82%
Specific activity (pmol/mg/h) Mean (sc 100 µmol/kg (19 mg/kg) once daily, 24 h, group mean): 1.094 pmol/mg/h
Inhibition (%) [6]: 69%
Specific activity (pmol/mg/h) Mean (sc 100 µmol/kg (19 mg/kg) once daily, 48 h, group mean): 1.481 pmol/mg/h
Inhibition (%) [7]: 47% and 61%
Specific activity (pmol/mg/h) Mean (sc 100 µmol/kg (19 mg/kg) once daily, 72 h, group mean): 1.177 pmol/mg/h
Inhibition (%) [8]: 66%
Specific activity (pmol/mg/h) Mean (sc 100 µmol/kg (19 mg/kg) once daily, 96 h, group mean): 0.859 pmol/mg/h
Inhibition (%) [9]: 73%
Specific activity (pmol/mg/h) Mean (sc 100 µmol/kg (19 mg/kg) once daily, 120 h, group mean): 0.730 pmol/mg/h
Inhibition (%) [10]: 62% and 90% and 83%
inhibition at 10 µmol/kg (sc 10 µmol/kg (1.9 mg/kg) once daily, 24 h, group mean, read-out: Inhibition (%) Mean): 53%
inhibition at 10 µmol/kg (sc 10 µmol/kg (1.9 mg/kg) once daily, 48 h, group mean, read-out: Inhibition (%) Mean): 53%
inhibition at 10 µmol/kg (sc 10 µmol/kg (1.9 mg/kg) once daily, 48 h, individual animals, read-out: Inhibition (%)): 51%
inhibition at 10 µmol/kg (sc 10 µmol/kg (1.9 mg/kg) once daily, 72 h, group mean, read-out: Inhibition (%) Mean): 63%
inhibition at 10 µmol/kg (sc 10 µmol/kg (1.9 mg/kg) once daily, 72 h, individual animals, read-out: Inhibition (%)): 63%
inhibition at 10 µmol/kg (sc 10 µmol/kg (1.9 mg/kg) once daily, 96 h, group mean, read-out: Inhibition (%) Mean): 60%
inhibition at 10 µmol/kg (sc 10 µmol/kg (1.9 mg/kg) once daily, 120 h, group mean, read-out: Inhibition (%) Mean): 58%
inhibition at 100 µmol/kg (sc 100 µmol/kg (19 mg/kg) once daily, 24 h, group mean, read-out: Inhibition (%) Mean): 68%
inhibition at 100 µmol/kg (sc 100 µmol/kg (19 mg/kg) once daily, 24 h, individual animals, read-out: Inhibition (%)): 67%
inhibition at 100 µmol/kg (sc 100 µmol/kg (19 mg/kg) once daily, 48 h, group mean, read-out: Inhibition (%) Mean): 56%
inhibition at 100 µmol/kg (sc 100 µmol/kg (19 mg/kg) once daily, 48 h, individual animals, read-out: Inhibition (%)): 60%
inhibition at 100 µmol/kg (sc 100 µmol/kg (19 mg/kg) once daily, 72 h, group mean, read-out: Inhibition (%) Mean): 65%
inhibition at 100 µmol/kg (sc 100 µmol/kg (19 mg/kg) once daily, 72 h, individual animals, read-out: Inhibition (%)): 67%
inhibition at 100 µmol/kg (sc 100 µmol/kg (19 mg/kg) once daily, 96 h, group mean, read-out: Inhibition (%) Mean): 75%
inhibition at 100 µmol/kg (sc 100 µmol/kg (19 mg/kg) once daily, 96 h, individual animals, read-out: Inhibition (%)): 84%
inhibition at 100 µmol/kg (sc 100 µmol/kg (19 mg/kg) once daily, 120 h, group mean, read-out: Inhibition (%) Mean): 78%
SMILES: NNc1nnc(NN)c2ccccc12 [dihydralazine]
SSAO inhibition (animal experiments, low dose without appreciable blood pressure lowering effect): significant SSAO inhibition
Specific activity [1]: 2.11 pmol/mg/h and 1.19 pmol/mg/h and 1.44 pmol/mg/h
Specific activity [2]: 1.66 pmol/mg/h and 1.61 pmol/mg/h and 1.52 pmol/mg/h
Specific activity [3]: 1.25 pmol/mg/h and 1.06 pmol/mg/h and 1.43 pmol/mg/h
Specific activity [4]: 0.97 pmol/mg/h and 1.94 pmol/mg/h and 1.12 pmol/mg/h
Specific activity [5]: 0.78 pmol/mg/h and 2.90 pmol/mg/h and 0.59 pmol/mg/h
Specific activity [6]: 1.13 pmol/mg/h and 1.05 pmol/mg/h and 1.11 pmol/mg/h
Specific activity [7]: 1.33 pmol/mg/h and 1.80 pmol/mg/h and 1.31 pmol/mg/h
Specific activity [8]: 1.11 pmol/mg/h and 1.26 pmol/mg/h and 1.15 pmol/mg/h
Specific activity [9]: 0.55 pmol/mg/h and 1.12 pmol/mg/h and 0.91 pmol/mg/h
Specific activity [10]: 1.29 pmol/mg/h and 0.34 pmol/mg/h and 0.56 pmol/mg/h
